Assay results taken from patent US8410150B2, “Inhibitors of carnitine palmitoyltransferase and treating cancer” (University Health Network, priority 2007, dated 2013).
pIC50: −log10 of the molar value. Counter-ions that a name gives are not always drawn.

Target: T1, human CPT1A (Homo sapiens, UniProt P50416)
T1 construct: made in house; host or cells: Saccharomyces cerevisiae (pESC-trp) or cultured mammalian cells (pCDNA3.1); mitochondrial extract
T1 sequence (P50416 1-773): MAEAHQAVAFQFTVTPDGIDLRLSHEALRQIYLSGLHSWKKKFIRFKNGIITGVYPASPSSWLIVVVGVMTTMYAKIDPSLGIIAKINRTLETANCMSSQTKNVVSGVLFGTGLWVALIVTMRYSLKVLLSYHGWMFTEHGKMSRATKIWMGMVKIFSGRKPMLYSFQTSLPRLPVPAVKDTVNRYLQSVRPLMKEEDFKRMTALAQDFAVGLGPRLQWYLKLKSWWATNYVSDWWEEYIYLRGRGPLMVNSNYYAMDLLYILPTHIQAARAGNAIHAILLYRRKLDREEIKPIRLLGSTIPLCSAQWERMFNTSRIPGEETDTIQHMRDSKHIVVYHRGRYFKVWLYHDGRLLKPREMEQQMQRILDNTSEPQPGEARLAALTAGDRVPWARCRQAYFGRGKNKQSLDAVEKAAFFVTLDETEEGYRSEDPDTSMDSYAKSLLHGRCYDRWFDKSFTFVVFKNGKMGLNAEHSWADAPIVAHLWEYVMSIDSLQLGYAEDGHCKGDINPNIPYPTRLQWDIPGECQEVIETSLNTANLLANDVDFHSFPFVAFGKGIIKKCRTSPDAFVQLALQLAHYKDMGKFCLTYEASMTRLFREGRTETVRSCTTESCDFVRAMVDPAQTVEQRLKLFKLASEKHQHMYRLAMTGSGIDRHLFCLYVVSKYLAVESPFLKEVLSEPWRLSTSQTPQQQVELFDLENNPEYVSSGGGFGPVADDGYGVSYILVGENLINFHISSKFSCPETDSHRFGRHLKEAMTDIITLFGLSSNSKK
Test: Human CPT1A LC/MS assay
Assay type: biochemical
Conditions: human CPT1A LC/MS assay, dose response format
From the text: Nucleotide sequences encoding human CPT1 enzymes were individually cloned into the yeast expression vector pESC-trp at the Cla1 (5′ terminus) and Pac1 (3′ terminus) restriction sites by PCR amplification of the open reading frame using oligonucleotide primers designed to encode the wild-type CPT1 protein sequence. Standard molecular biology techniques were used to transform and express the CPT1 proteins in the yeast Saccharomyces cerevisiae. The yeast cells were lysed by enzymatic degradation of the cell wall by Zymolase, and the mitochondria were isolated by standard biochemical techniques. The integrity of the isolated mitochondria was monitored by determining the activity of succinate dehydrogenase in the mitochondrial preparations. The mitochondrial extracts were stored at −80° C. in buffer containing 10 mM HEPES pH 7.4 and 250 mM sucrose.
Human CPT1 (A, B, C) genes were additionally cloned into the pCDNA3.1 vector individually for expression in cultured mammalian cells. Cells expressing the exogenous CPT1A were identified and grown under standard conditions. Mammalian cells were harvested, and mitochondrial extracts prepared using standard biochemical methods. The mitochondrial extracts were stored at −80° C. in buffer containing 10 mM HEPES pH 7.4 and 250 mM sucrose.
Assays were performed in 96-well plate format. Each 100 μL reaction contained 40 mM KCl, 50 mM TrisHCl pH 7.5, and 250 mM mannitol (Assay Buffer), and 1.6 μg protein of an extract, 20 μM palmitoyl-CoA, 50 μM L-carnitine, and 10 ug/mL BSA. Reactions were incubated at room temperature and stopped after 10 minutes by extraction with 200 μL of water saturated n-butanol containing myristoyl carnitine (500 nM) as an internal standard. The samples were thoroughly mixed, and the phases separated by centrifugation. Samples were prepared for analysis with a 10 fold dilution of the n-butanol phase containing the reaction product palmitoyl carnitine into a 50:50 (acetonitrile:water) solvent for analysis. […] of prepared sample was separated on a Phenomenex Jupiter 5μ C4 reverse-phase column using an Agilent 1100 HPLC with a gradient from 50% acetonitrile (0.5% acetic acid) to 100% acetonitrile and quantified by detection with a Bruker Esquire 3000plus mass spectrometer. The abundance of the palmitoyl carnitine product was determined relative to the internal standard and the actual quantity of palmitoyl carnitine can be determined from a standard curve prepared using the n-butanol solution containing the internal standard.
Compounds were evaluated in two formats, a screening format, and a dose response format. The screening format was performed by adding 25 μL compound in 20% DMSO and Assay Buffer to 25 μL of extract containing […] and Assay Buffer, followed by a 10 minute incubation at room temperature. 50 μL of 40 μM palmitoyl-CoA in Assay Buffer was added to the reaction mixture, mixed and incubated for 10 minutes at room temperature. A negative control for activity was also performed where the carnitine was omitted from the reaction. A positive control for activity was also performed by omitting compound from the solution containing 20% DMSO and Assay Buffer. The reaction mixture was extracted and analyzed as described above. The inhibition by compound was determined by comparing the control relative activity to the relative activity observed in wells containing the compound. Relative activity was determined by subtracting the relative intensity (area palmitoyl carnitine/area myristoyl carnitine) observed in the negative control from the relative intensity observed in the experimental well, and dividing by the relative activity observed in the positive control.
[formula] Compound characterization by dose response format was performed using the above described assay conditions and a 16 point compound titration in 2 fold compound dilution steps. The DMSO concentration was kept constant at 20% (v/v) for all compound concentrations.

pIC50 | SMILES
4.00 to 5.00 | CCCCCCC#Cc1cccc(N(C)S(=O)(=O)N[C@H](CC(=O)[O-])C[N+](C)(C)C)c1 [Example S112, (R)-3-(N—(N-methyl-N-(3-(oct-1-ynyl)phenyl)sulfamoyl)amino)-4-(trimethyl-ammonio)butanoate]
< 2.60 | CC(=O)Nc1ccc(C(=O)N[C@H](CC(=O)[O-])C[N+](C)(C)C)cc1 [Example S53, (R)-3-(4-acetamidobenzamido)-4-(trimethylammonio)butanoate]
4.00 to 5.00 | CCCCC#Cc1ccc(C(=O)N[C@H](CC(=O)[O-])C[N+](C)(C)C)o1 [Example S4, (R)-3-(5-(hex-1-ynyl)furan-2-carboxamido)-4-(trimethylammonio)butanoate]
4.00 to 5.00 | CCCCCCCCOC(=O)Nc1ccc(S(=O)(=O)N[C@H](CC(=O)O)C[N+](C)(C)C)cc1 [Example S73, (R)-3-carboxy-N,N,N-trimethyl-2-(4-(octyloxycarbonylamino)phenyl-sulfonamido)propan-1-aminium 2,2,2-trifluoroacetate]
5.00 to 6.00 | CCCCCc1ccc(S(=O)(=O)N[C@H](CC(=O)O)C[N+](C)(C)C)cc1 [Example S23, (R)-3-(4-pentylphenylsulfonamido)-4-(trimethylammonio)butanoate 2,2,2-trifluoroacetate]
5.00 to 6.00 | Cc1cccc(OCc2ccc(C(=O)N[C@H](CC(=O)[O-])C[N+](C)(C)C)o2)c1 [Example S70, (R)-3-(5-(m-tolyloxymethyl)furan-2-carboxamido)-4-(trimethylammonio)-butanoate]
4.00 to 5.00 | C[N+](C)(C)C[C@@H](CC(=O)O)NC(=O)c1ccc(Br)s1 [Example S95, (R)-2-(5-bromothiophene-2-carboxamido)-3-carboxy-N,N,N-trimethyl-propan-1-aminium trifluoroacetate]
4.00 to 5.00 | C[N+](C)(C)C[C@@H](CC(=O)[O-])NC(=O)c1ccc(C#Cc2ccccc2)o1 [Example S3, (R)-3-(5-(phenylethynyl)furan-2-carboxamido)-4-(trimethylammonio)-butanoate]
2.60 to 3.00 | C[N+](C)(C)C[C@@H](CC(=O)O)NC(=O)Nc1ccc(F)c(F)c1F [Example S14, (R)-3-Carboxy-N,N,N-trimethyl-2-(3-(2,3,4-trifluorophenyl)ureido)-propan-1-aminium acetate]
< 2.60 | C[N+](C)(C)C[C@@H](CC(=O)O)NC(=O)c1cccc(-c2cc[nH]n2)c1 [Example S57, (R)-3-(3-(1H-pyrazol-3-yl)benzamido)-4-(trimethylammonio)butanoate trifluoroacetate]
5.00 to 6.00 | Cc1ccc(CCc2ccc(S(=O)(=O)N[C@H](CC(=O)O)C[N+](C)(C)C)s2)cc1 [Example S81, (R)-3-carboxy-N,N,N-trimethyl-2-(5-(4-methylphenethyl)thiophene-2-sulfonamido)propan-1-aminium 2,2,2-trifluoroacetate]
4.00 to 5.00 | CCCCCCCCCCCCN(c1ccccc1)S(=O)(=O)N[C@H](CC(=O)[O-])C[N+](C)(C)C [Example S32, (R)-3-(N-dodecyl-N-phenylsulfamoylamino)-4-(trimethylammonio)-butanoate]
< 2.60 | C[N+](C)(C)C[C@@H](CC(=O)[O-])NC(=O)Nc1ccccc1Oc1ccccc1 [Example S100, (R)-3-carboxy-N,N,N-trimethyl-2-(3-(2-phenoxyphenyl)ureido)propan-1-aminium]
< 2.60 | C[N+](C)(C)C[C@@H](CC(=O)O)NC(=O)Nc1ccccc1I [Example S99, (R)-3-carboxy-2-(3-(2-iodophenyl)ureido)-N,N,N-trimethylpropan-1-aminium]
3.00 to 4.00 | C[N+](C)(C)C[C@@H](CC(=O)O)NS(=O)(=O)c1ccc(Oc2ccccc2)nc1 [Example S19, (R)-3-carboxy-N,N,N-trimethyl-2-(6-phenoxypyridine-3-sulfonamido)propan-1-aminium 2,2,2-trifluoroacetate]
3.00 to 4.00 | C[N+](C)(C)C[C@@H](CC(=O)[O-])NC(=O)Nc1cccc(Oc2ccccc2)c1 [Example S38, (R)-3-(3-(3-Phenoxyphenyl)ureido)-4-(trimethylammonio)butanoate]
3.00 to 4.00 | Cc1cccc(C#Cc2ccc(S(=O)(=O)N[C@H](CC(=O)O)C[N+](C)(C)C)s2)c1 [Example S76, (R)-3-carboxy-N,N,N-trimethyl-2-(5-(m-tolylethynyl)thiophene-2-sulfonamido)propan-1-aminium 2,2,2-trifluoroacetate]
≥ 6.00 | C[N+](C)(C)C[C@@H](CC(=O)O)NC(=O)c1ccc(CCc2ccsc2)s1 [Example S98, (R)-3-carboxy-N,N,N-trimethyl-2-(5-(2-(thiophen-3-yl)ethyl)thiophene-2-carboxamido)propan-1-aminium 2,2,2-trifluoroacetate]
2.60 to 3.00 | C[N+](C)(C)C[C@@H](CC(=O)O)NS(=O)(=O)c1ccc(-c2ccccn2)s1 [Example S21, (R)-3-(5-(pyridin-2-yl)thiophene-2-sulfonamido)-4-(trimethylammonio)-butanoate 2,2,2-trifluoroacetate]
5.00 to 6.00 | CCCCCCCC#Cc1ccc(NS(=O)(=O)N[C@H](CC(=O)[O-])C[N+](C)(C)C)cc1 [Example S104, (R)-3-(N-(4-(non-1-ynyl)phenyl)sulfamoylamino)-4-(trimethylammonio) butanoate]
≥ 6.00 | CCCCCCCCCc1ccc(NS(=O)(=O)N[C@H](CC(=O)[O-])C[N+](C)(C)C)cc1 [Example S105, (R)-3-(N-(4-nonylphenyl)sulfamoylamino)-4-(trimethylammonio)-butanoate]
3.00 to 4.00 | C[N+](C)(C)C[C@@H](CC(=O)[O-])NC(=O)Nc1cccc(Cc2ccccc2)c1 [Example S86, (R)-3-(3-(3-benzylphenyl)ureido)-4-(trimethylammonio)butanoate]
≥ 6.00 | CCCCCc1ccc(C#Cc2ccc(C(=O)N[C@H](CC(=O)O)C[N+](C)(C)C)s2)cc1 [Example S96, (R)-3-carboxy-N,N,N-trimethyl-2-(5-((4-pentylphenyl)ethynyl)-thiophene-2-carboxamido)propan-1-aminium 2,2,2-trifluoroacetate]
3.00 to 4.00 | Cc1cc(COc2ccccc2)oc1C(=O)N[C@H](CC(=O)[O-])C[N+](C)(C)C [Example S65, (R)-3-(3-methyl-5-(phenoxymethyl)furan-2-carboxamido)-4-(trimethyl-ammonio)butanoate]
≥ 6.00 | CCCCCCCCc1cccc(NS(=O)(=O)N[C@H](CC(=O)[O-])C[N+](C)(C)C)c1 [Example S111, (R)-3-(N-(3-octylphenyl)sulfamoylamino)-4-(trimethylammonio)-butanoate]
